Test results: patent US20260008770A1, “CBL-B INHIBITORS AND METHODS OF USES THEREOF” (Insilico Medicine IP Limited, priority 2022, published 2026)

Target: Cbl-b protein (CBL-B, GST-Tag) (Homo sapiens (Human), UniProt Q13191)
Assay: HTRF based binding assay, affinity to Cbl-b protein
Settings: not given

Chain of Cbl-b protein (CBL-B, GST-Tag) (Q13191 whole entry): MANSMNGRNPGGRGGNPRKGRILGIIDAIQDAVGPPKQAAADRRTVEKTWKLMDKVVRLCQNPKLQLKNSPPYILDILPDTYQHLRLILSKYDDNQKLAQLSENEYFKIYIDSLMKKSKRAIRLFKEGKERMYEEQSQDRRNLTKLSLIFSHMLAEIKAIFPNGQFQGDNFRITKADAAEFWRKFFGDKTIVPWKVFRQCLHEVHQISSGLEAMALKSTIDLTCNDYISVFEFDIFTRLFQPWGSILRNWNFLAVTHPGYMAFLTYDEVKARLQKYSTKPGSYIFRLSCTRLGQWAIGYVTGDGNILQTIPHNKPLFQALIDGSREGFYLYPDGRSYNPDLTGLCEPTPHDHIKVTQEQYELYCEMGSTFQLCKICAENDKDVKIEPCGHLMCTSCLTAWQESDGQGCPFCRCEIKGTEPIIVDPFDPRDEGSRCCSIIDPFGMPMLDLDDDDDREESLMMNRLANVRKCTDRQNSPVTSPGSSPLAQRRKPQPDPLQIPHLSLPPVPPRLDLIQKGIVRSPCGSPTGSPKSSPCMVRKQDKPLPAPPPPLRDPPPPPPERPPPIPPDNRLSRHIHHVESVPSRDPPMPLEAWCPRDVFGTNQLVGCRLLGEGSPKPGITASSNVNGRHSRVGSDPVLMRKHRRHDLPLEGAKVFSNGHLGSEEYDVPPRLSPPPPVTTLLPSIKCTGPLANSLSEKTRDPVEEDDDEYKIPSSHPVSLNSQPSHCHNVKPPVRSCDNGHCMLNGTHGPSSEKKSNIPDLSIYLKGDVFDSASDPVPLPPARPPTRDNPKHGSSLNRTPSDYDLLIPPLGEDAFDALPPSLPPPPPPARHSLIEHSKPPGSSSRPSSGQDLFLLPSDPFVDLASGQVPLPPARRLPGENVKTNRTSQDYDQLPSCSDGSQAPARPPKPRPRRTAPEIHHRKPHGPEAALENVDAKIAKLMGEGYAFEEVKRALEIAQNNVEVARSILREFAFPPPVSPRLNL

| Compound | IC50 |
| --- | --- |
| CC1CC(c2cc(Cl)nc(-n3cnc4c(C(F)(F)F)cc(CN5CCC[C@H](C)C5)cc4c3=O)c2)(c2nncn2C)C1 (stereo partly shown) [Example 41] | 20 to 50 nM |
| CC1CC(c2cncc(-n3cc4c(C(F)(F)F)cc(CN5CCC[C@H](C)C5)cc4n3)c2)(c2nncn2C)C1 (stereo partly shown) [Example 91] | 20 to 50 nM |
| Cn1cnnc1[C@]1(c2ccnc(-n3cnc4c(C(F)(F)F)cc(CN5CCC6(CCO6)C5)cc4c3=O)c2)C[C@H](C)C1 (stereo partly shown) [Example 120] | 500 to 1000 nM |
| C[C@H]1CCCN(Cc2cc(C(F)(F)F)c3cnn(-c4cccc([C@H](c5nncn5C)C5CCC5)c4)c(=O)c3c2)C1 [Example 19] | 50 to 500 nM |
| C[C@H]1CCCN(Cc2cc3c(=O)n(-c4cc([C@]5(c6nncn6C)C[C@@H](C)C5)cc(OCF)n4)cnc3cn2)C1 [Example 99] | < 20 nM |
| C[C@H]1CCCN(Cc2cc(C(F)(F)F)c3ncn(-c4cc(C5(c6nncn6C)CC6(CC6)C5)ccn4)c(=O)c3c2)C1 [Example 118] | 20 to 50 nM |
| C#CC1CCCN(Cc2cc(C(F)(F)F)c3cnn(-c4cccc(C5(c6nncn6C)CC(C)C5)c4)c(=O)c3c2)C1 (stereo not shown) [Example 20] | 500 to 1000 nM |
| C[C@H]1CCCN(Cc2cc(C(F)(F)F)c3cn(-c4cccc(C5(c6nncn6C)CC(OC(F)F)C5)c4)nc3c2)C1 (stereo partly shown) [Example 59] | 50 to 500 nM |
| CC1CC(c2cccc(-n3ncc4c(C(F)(F)F)cc(CN5CCCCC5)cc4c3=O)c2)(c2nncn2C)C1 (stereo not shown) [Example 22] | 50 to 500 nM |
| CCc1cc([C@]2(c3nncn3C)C[C@@H](C)C2)cc(-n2cnc3ccc(CN4CCC[C@H](C)C4)cc3c2=O)n1 [Example 93] | 20 to 50 nM |
| C[C@H]1CCCN(Cc2cc(C(F)(F)F)c3cn(-c4cccc([C@]5(c6nncn6C)C[C@@H](OC(F)(F)F)C5)c4)nc3c2)C1 [Example 92] | 50 to 500 nM |
| CC1CC(c2cccc(-c3nc4cc(CN5CCC[C@H](C)C5)cc(C(F)(F)F)c4[nH]3)c2)(c2nncn2C)C1 (stereo partly shown) [Example 17] | 50 to 500 nM |

Same assay, conditions: HTRF binding, CBL-B (GST-Tag), fluorescence labeled Cbl-b binding probe

| Compound | IC50 |
| --- | --- |
| C[C@H]1CCCN(Cc2cc3c(=O)n(-c4cc([C@]5(c6nncn6C)C[C@@H](C)C5)cc(OCF)n4)cnc3cc2F)C1 [Example 100] | < 20 nM |
| CC1CC(c2cccc(-n3cc(C(F)(F)F)c4ccc(CN5CCC[C@H](C)C5)cc4c3=O)c2)(c2nncn2C)C1 (stereo partly shown) [Example 12] | < 20 nM |
| C#C[C@H]1CCCN(Cc2cc(C(F)(F)F)c3cn(-c4cccc([C@]5(c6nncn6C)C[C@@H](C)C5)c4)nc3c2)C1 [Example 56] | < 20 nM |
| C#CC1CC(c2cccc(-n3cc4c(C(F)(F)F)cc(CN5CCC[C@H](C)C5)cc4n3)c2)(c2nncn2C)C1 (stereo partly shown) [Example 32] | < 20 nM |
| CC1CC(c2cccc(-n3cc4c(C(F)(F)F)cc(CN5CCC[C@H](C)C5)cc4n3)c2)(c2nncn2C)C1 (stereo partly shown) [Example 7] | < 20 nM |
| C[C@H]1CCCN(Cc2cc(F)c3ncn(-c4cc([C@]5(c6nncn6C)C[C@@H](C)C5)cc(OCF)n4)c(=O)c3c2)C1 [Example 111] | < 20 nM |
| Cn1cnnc1[C@]1(c2cc(OCF)nc(-n3cnc4c(C(F)(F)F)cc(CN5CCC[C@H](F)C5)cc4c3=O)c2)C[C@H](C)C1 [Example 102] | < 20 nM |
| C[C@@H]1CN(Cc2cc(C(F)(F)F)c3ncn(-c4cc([C@]5(c6nncn6C)C[C@@H](C)C5)cc(OCF)n4)c(=O)c3c2)CCC1F (stereo partly shown) [Example 106] | < 20 nM |
| CC1CC(c2cccc(-n3cnc4c(C(F)(F)F)cc(CN5CCC[C@H](C)C5)cc4c3=O)c2)(c2nncn2C)C1 (stereo partly shown) [Example 84] | < 20 nM |
| Cn1cnnc1[C@]1(c2cc(OCF)nc(-n3cnc4c(C(F)(F)F)cc(CN5CCCC(C)(F)C5)cc4c3=O)c2)C[C@H](C)C1 (stereo partly shown) [Example 108] | < 20 nM |
| C=Cc1cc([C@]2(c3nncn3C)C[C@@H](C)C2)cc(-n2cnc3ccc(CN4CCC[C@H](C)C4)cc3c2=O)n1 [Example 94] | < 20 nM |
| COc1cc([C@]2(c3nncn3C)C[C@@H](C)C2)cc(-n2cnc3c(C(F)(F)F)cc(CN4CCC[C@H](C)C4)cc3c2=O)n1 [Example 115] | < 20 nM |
| C[C@H]1CCCN(Cc2cc(C(F)(F)F)c3cn(-c4cccc(C5(c6nncn6C)CC(CC#N)C5)c4)nc3c2)C1 (stereo partly shown) [Example 90] | < 20 nM |
